Data reported in patent US20040097566A1, “2-Substituted thiazolidinone and oxazolidinone derivatives for the inhibition of phosphatases and the treatment of cancer” (priority 2001, published 2004).
“Also recorded” adds a separate entry of the source.

Legend:
[1] = system: non-small-cell lung cancer cell line A549; assay: MTT assay, human non-small-cell lung cancer cells; type: cell-based; conditions: concentrations in the range of 10^−7-10^−5 M or higher, FIGS. 3, 15
Source text: (§1) The anti-cancer activity of some of the compounds described herein have been tested in one type of such in vitro assay, as described in the examples herein, using a microculture assay with 3-(4,5-dimethylthiazol-2-yl)-2,5-diphenyltetrazolium bromide (“MTT”). This assay has an advantage over in vivo assay in that results are obtained within a week as opposed to several months. The assay can be carried out in 96-well microtiter plates. The MTT assay is based on the production of a dark blue formazan product by dehydrogenase in the mitochondria of live tumor cells after exposure to drug for 6 days [M. C. Alley, D. A. Scudiero, A. Monks, M. L. Hursey, M. J. Czerwinski, D. L. Fine, B. J. Abbout, J. G. Mayo, R. H. Shoemaker and M. R. Boyd, Cancer Res., 48, 589, 1988]. Thus, only live cells are stained and can be measured at 595 nm. Anti-cancer activity can be reported as percent of the tumor cell growth in the presence of compound at a defined dose compared to control/vehicle treated tumor cells. The results of some such screening assays are given in Examples 162a and 162b, and in FIGS. 2, 3, and 15-18.
(§2) The following human cancer cell lines were used to detect anti-cancer activity in the compounds of the invention.
The non-small-cell lung cancer cell line A549 was used to detect anti-lung cancer activity
(§3) Cell lines were purchased from American Type Culture Collection (ATCC).
(§4) The cancer cell cultures were grown as recommended by the ATTC manuals. A549 cells and BX-PC-3 were grown in DME Dulbecco's modified Eagle's medium containing 4500 mg/L glucose; 4 mM L-glutamine; 10 U/ml Pen-G; 10 mcg/ml […] and 10% fetal calf serum (FCS). PC-3 and MDA-MB468 cells were grown in RPMI medium 1640 containing 2 mM L-glutamine; 10 U/ml Pen-G; 10 mcg/ml Streptomycin and 10% FCS. Cells were kept at 6% CO2 and 37° C. Cells were seeded on day zero in 96-well format tissue culture plates at suitable densities the day before starting treatment, in the media indicated above.
(§5) On day one, the compounds of the invention were added to the culture media of growing cells, containing 10% FCS. The cell media contained the compounds of the invention at one of six concentrations: […], 5×10^−8, 1×10^−7, 5×10^−7, 1×10^−6, and 1×10^−5M. 0.1% DMSO was used as vehicle control, and never exceeded 0.1% final concentration. On day four the media was removed and replaced with fresh media containing the compounds of the invention and FCS.
(§6) The assay is based on the cleavage of the yellow tetrazolium salt MTT to purple formazan crystals by dehydrogenase activity in active mitochondria. This conversion only occurs in living cells with intact/functional mitochondria.
(§7) On day five 10 μl of 5 mg/ml MTT dye are added to each well containing a cell culture. Cells are incubated for additional 4 hours at 6% CO2 and 37° C. Reaction is then stopped by adding 100 μl/well of a solubilization solution consisting of 10% Sodium Dodecyl Sulfate (SDS) and 10 mM HCl On day 6 the formazan crystals formed are solubilized and the resulting colored solution is quantified using a scanning multiwell spectrophotometer at a wavelength of 595 nm.

[2] = system: breast cancer cell line MDA-MB468; assay: MTT assay, human breast cancer cells; type: cell-based; conditions: concentrations in the range of 10^−7-10^−5 M or higher, FIGS. 2, 17
Source text: as §1, §2
The breast cancer cell line MDA-MB468 served to detect anti-breast cancer activity.
as §3, §4, §5, §6, §7

[3] = system: prostate cancer cell line PC-3; assay: MTT assay, human prostate cancer cells; type: cell-based; conditions: concentrations in the range of 10^−7-10^−5 M or higher, FIGS. 2, 16
Source text: as §1, §2
The prostate cancer cell line PC-3 was used to detect […]
as §3, §4, §5, §6, §7

[4] = system: pancreatic cancer cell line BX-PC-3; assay: MTT assay, human pancreatic cancer cells; type: cell-based; conditions: concentrations in the range of 10^−7-10^−5 M or higher, FIGS. 3, 18
Source text: as §1, §2
The pancreatic cancer cell line BX-PC-3 was used to detect anti-pancreatic cancer activity.
as §3, §4, §5, §6, §7

[5] = system: tumor cells (H460); assay: Solid non-small-cell lung cancer tumors in athymic nude mice, intraperitoneal treatment; type: in vivo; conditions: H460 s.c. in athymic nude mice, i.p. every other day, compound 81 20mg/kg, FIG. 22
Description: (§8) Four to six week-old male athymic nude mice (Harlan) were housed under sterile conditions in a fixed 12-12-hr artificial light-dark cycle, and maintained on a standard rodent diet provided ad libitum. Animals were allowed two days to acclimate in this experimental environment prior to the initiation of the study.
(§9) Groups of animals were injected subcutaneously with tumor cells (H460 or PC3). Prior to the injection, the sterile tumor cells were at a logarithmic growth phase and were washed twice with PBS, counted and resuspended in sterile saline at 5-50 million cells per ml. As soon as solid tumors were discernible, the animals were sorted into treatment groups with equal average tumor volume. Animals were treated every other day intraperitoneally with a final volume of 5 ml/kg. Tumor volume was measured once a week for the duration of the study.
Experiment II: Treatment of solid non-small-cell lung cancer tumors

[6] = system: tumor cells (PC3); assay: Solid prostate cancer tumors in athymic nude mice, intraperitoneal treatment; type: in vivo; conditions: PC3 s.c. in athymic nude mice; i.p. every other day; compound 43 20mg/kg, compound 81 20mg/kg and 60mg/kg; FIGS. 20, 21
Description: as §8, §9
Experiment I: Treatment of solid prostate cancer tumors
Study 1—Treatment groups(n=6/group):

| melting point | Compound | anticancer cell activity / killing of non-small-cell lung cancer cells [1] | anticancer cell activity / killing of breast cancer cells [2] | anticancer cell activity / killing of prostate cancer cells [3] | anticancer cell activity / killing of pancreatic cancer cells [4] | growth of non-small cell lung cancer tumors [5] | growth of solid human prostate cancer tumors [6] |
| --- | --- | --- | --- | --- | --- | --- | --- |
| 310 to 312 °C | COc1cc(-c2ccc(O)c(C34CC5CC(CC(C5)C3)C4)c2)cc(/C=C2\SC(N3CCOCC3)=NC2=O)c1O [Compound 84, 5-[3-(3-Adamantan-1-yl-4-hydroxy-phenyl)-5-methoxy-6-hydroxy-benzylidene]-2-morpholin-4-yl-thiazol-4-one] | kill significant percentages of the cells | kill significant percentages of the cells | kill significant percentages of the cells | kill significant percentages of the cells |  |  |
| 74 to 77 °C | CCC(C)(C)c1cc(-c2cccc(CC3SC(N4CCOCC4)=NC3=O)c2)ccc1O (centres unmarked) [Compound 151, 5-[3′-(1,1-Dimethyl-propyl)-4′-hydroxy-biphenyl-3-ylmethyl]-2-morpholin-4-yl-thiazol-4-one] | kill significant percentages of the cells | kill significant percentages of the cells | kill significant percentages of the cells | kill significant percentages of the cells |  |  |
| 293 to 295 °C | O=C1N=C(N2CCOCC2)S/C1=C\c1cccc(-c2cc(F)c(O)c(C34CC5CC(CC(C5)C3)C4)c2)c1 [Compound 1, 5-[3-(3-Adamantan-1-yl-4-hydroxy-5-fluoro-phenyl)benzylidene]-2-morpholin-4-yl-thiazol-4-one] | kill significant percentages of the cells; also recorded: strong anticancer all activity | kill significant percentages of the cells; also recorded: strong anticancer cell activity | kill significant percentages of the cells; also recorded: strong anticancer cell activity | kill significant percentages of the cells; also recorded: strong anticancer all activity |  |  |
| 152 to 154 °C | O=C1N=C(N2CCCC2)SC1Cc1cccc(-c2cc(F)c(O)c(C34CC5CC(CC(C5)C3)C4)c2)c1 (centres unmarked) [Compound 81] | kill significant percentages of the cells | kill significant percentages of the cells | kill significant percentages of the cells | kill significant percentages of the cells | significantly retarded the growth; also recorded: significantly slowed the growth | significantly retarded the growth; also recorded: significantly slowed the growth |
|  | CCC(C)(C)c1cc(-c2cccc(CC3SC(N4CCOCC4)=NC3=O)n2)ccc1O (centres unmarked) [Compound 155, 5-{6-[3-(1,1-Dimethyl-propyl)-4-hydroxy-phenyl]-pyridin-2ylmethyl}--2-morpholin-4-yl-thiazol-4-one] | kill significant percentages of the cells | kill significant percentages of the cells | kill significant percentages of the cells | kill significant percentages of the cells |  |  |
|  | O=C1N=C(N2CCOCC2)SC1Cc1cccc(-c2ccc(O)c(C34CC5CC(CC(C5)C3)C4)c2)c1 (centres unmarked) [Compound 135, 5-(3′-Adamantan-1-yl-4′-hydroxy-biphenyl-3-ylmethyl)-2-morpholin-4-yl-thiazol-4-one] | kill significant percentages of the cells | kill significant percentages of the cells | kill significant percentages of the cells | kill significant percentages of the cells |  |  |
| 227 to 229 °C | O=C1N=C(N2CCOCC2)SC1Cc1cccc(-c2cc(F)c(O)c(C34CC5CC(CC(C5)C3)C4)c2)c1 (centres unmarked) [Compound 43, 5-[3-(3-Adamantan-1-yl-4-hydroxy-5-fluoro-phenyl)benzyl]-2-morpholin-4-yl-thiazol-4-one] | kill significant percentages of the cells; also recorded: strong anticancer all activity | kill significant percentages of the cells; also recorded: strong anticancer cell activity | kill significant percentages of the cells; also recorded: strong anticancer cell activity | kill significant percentages of the cells; also recorded: strong anticancer all activity |  | significantly retarded the growth; also recorded: significantly slowed the growth |
| 321 to 324 °C | O=C1N=C(N2CCCCCC2)S/C1=C\c1cccc(-c2ccc(O)c(C34CC5CC(CC(C5)C3)C4)c2)c1 [Compound 14, 5-[3-(3-Adamantan-1-yl-4-hydroxy-phenyl)benzylidene]-2-azepan-1-yl-thiazol-4-one] |  |  |  |  |  |  |
|  | CCC(C)(C)c1cc(-c2ccc(F)c(/C=C3\SC(N4CCOCC4)=NC3=O)c2)ccc1O [Compound 152, 5-[3′-(1,1-Dimethyl-propyl)-4-fluoro-4′-hydroxy-biphenyl-3-ylmethylene]-2-morpholin-4-yl-thiazol-4one] | kill significant percentages of the cells | kill significant percentages of the cells | kill significant percentages of the cells | kill significant percentages of the cells |  |  |
